What all share (assay type): cell-based
What all share (settings): Xenopus oocytes

In test [1] the target is T1, K2P2.1(TREK-1) G137I (Mus musculus, UniProt P97438, G152I).
T1 construct: expressed in transfected cells; host or cells: Xenopus laevis oocytes, mRNA injected
Description: TEVC of C-type gate activating mutant G137I. From the text: (§1) Diverse types of physical and chemical stimuli activate K2P2.1(TREK-1) by stabilizing the C-type gate and switching the channel into a “leak” mode that is characterized by a loss of outward rectification of the potassium current.[6],[8] Accordingly, we used inside-out patch clamp experiments of K2P2.1(TREK-1) expressed in HEK293 cells to test whether BL-1249 acts on the C-type gate. […] Together with previous single point concentration studies showing the insensitivity of K2P2.1(TREK-1) W275S in mammalian cells,[40] our data provide definitive evidence that BL-1249 activates K2P2.1(TREK-1) by stimulating the C-type gate. […]
(§2) Xenopus laevis oocytes were harvested in accordance with UCSF IACUC protocol AN129690 and digested in calcium-free ND-96 (96 mM NaCl, 2 mM KCl, 3.8 mM MgCl2) immediately following harvest, as previously described.[6],[10] […] Defolliculated stage V–VI oocytes were injected with 0.2–6.0 ng of mRNA in 50 nL, and currents were recorded 24–48 h after injection. mRNA was synthesized from plasmid DNA using mMessage mMachine Kit (T7 promoter, Ambion, Life Technologies) and purified using RNEasy Kit (Qiagen). […] Once stabilized basal currents were recorded, compounds were perfused at various concentrations in standard ND96 and currents were allowed to increase to stabilization before recording final current. […]

In test [2] the target is TRAAK/EK-1_T (Mus musculus, UniProt O88454). The test is described as follows: TEVC of C-terminal tail swap chimera TRAAK/EK-1_T.
From the text: Given the importance of the C-terminal tail for the BL-1249 response and the fact that the C-terminal tails of K2P2.1(TREK-1) and K2P4.1(TRAAK) vary substantially (17.6% sequence similarity, 13.5% identity), we wondered if these differences could contribute to the different potencies observed in K2P2.1(TREK-1) and K2P4.1(TRAAK) BL-1249 responses. To test this possibility, we made chimeras that swapped the C-terminal tail between K2P2.1(TREK-1) and K2P4.1(TRAAK), TREK-1/AAK_T and TRAAK/EK_T. […] Despite this modest change, it is clear that the C-terminal tail alone is not sufficient to endow the K2P4.1(TRAAK) core with a K2P2.1(TREK-1)-like BL-1249 response. […]
as §2

Test [3] addresses T2, K2P2.1(TREK-1) W275S (Mus musculus, UniProt P97438, W290S).
T2 construct: expressed in transfected cells; host or cells: Xenopus laevis oocytes, mRNA injected
The test is described as follows: TEVC of C-type gate activating mutant W275S.
From the text: as §1, §2

T1 sequence (P97438 1-411 isoform P97438-2 G137I): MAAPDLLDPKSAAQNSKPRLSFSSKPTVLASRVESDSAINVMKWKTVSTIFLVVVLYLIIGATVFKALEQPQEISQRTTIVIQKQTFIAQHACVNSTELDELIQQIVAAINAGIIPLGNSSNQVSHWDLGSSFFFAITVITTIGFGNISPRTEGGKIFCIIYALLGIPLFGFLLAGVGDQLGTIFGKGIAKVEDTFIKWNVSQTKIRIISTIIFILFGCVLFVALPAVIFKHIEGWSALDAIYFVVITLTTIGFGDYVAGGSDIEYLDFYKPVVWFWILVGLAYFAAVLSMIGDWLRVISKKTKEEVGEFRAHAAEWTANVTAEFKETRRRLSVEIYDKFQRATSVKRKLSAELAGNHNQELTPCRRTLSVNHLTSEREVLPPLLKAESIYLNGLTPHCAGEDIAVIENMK
T2 sequence (P97438 1-411 isoform P97438-2 W275S): as the sequence (P97438 1-411 isoform P97438-2 G137I) above, with I137G, W275S counted along it
TRAAK/EK-1_T, sequence (O88454 1-255 limits assumed): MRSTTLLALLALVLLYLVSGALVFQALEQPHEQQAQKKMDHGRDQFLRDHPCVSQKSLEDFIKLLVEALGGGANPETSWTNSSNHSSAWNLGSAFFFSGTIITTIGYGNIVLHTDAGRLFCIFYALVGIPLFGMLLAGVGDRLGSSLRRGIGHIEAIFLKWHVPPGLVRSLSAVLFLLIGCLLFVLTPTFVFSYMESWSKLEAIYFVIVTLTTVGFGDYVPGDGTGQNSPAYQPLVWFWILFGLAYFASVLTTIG

One may read the EC50 as the concentration at which the effect is half-maximal. A lower EC50 goes with an effect from little substance. On to `c1ccc(-c2nnn[nH]2)c(Nc2cccc3c2CCCC3)c1` [BL-1249, (5,6,7,8-tetrahydro-naphthalen-1-yl)-[2-(1H-tetrazol-5-yl)-phenyl]-amine], for which, in test [1], the EC50 is above 60 µM and the “sensitivity of K2P2.1(TREK-1) G137I to compound” value is reported as “insensitive”. Further, in test [2], the EC50 turned out to be 23 ± 4 µM and the “increase in sensitivity of TRAAK/EK-1_T relative to K2P4.1(TRAAK)” value is reported as around 2 fold. In addition, in test [3], the EC50 is above 60 µM and the “sensitivity of K2P2.1(TREK-1) W275S to compound” value is listed as “insensitive”.
